pIC50, pKd, pKi: −log10 of the molar value.
Legend:
[1] = target: T1, Leukotriene A-4 hydrolase (Homo sapiens, UniProt P09960); assay: Inhibition of human C-terminal his6-tagged/N-terminal T7 gene leader sequence-tagged LTA4H using L-arginine-7-amino-4-Methylcoumarine as substrate preincubated for 30 mins followed by substrate addition measured for 30 mins by fluorescence assay
T1 sequence (P09960 whole entry): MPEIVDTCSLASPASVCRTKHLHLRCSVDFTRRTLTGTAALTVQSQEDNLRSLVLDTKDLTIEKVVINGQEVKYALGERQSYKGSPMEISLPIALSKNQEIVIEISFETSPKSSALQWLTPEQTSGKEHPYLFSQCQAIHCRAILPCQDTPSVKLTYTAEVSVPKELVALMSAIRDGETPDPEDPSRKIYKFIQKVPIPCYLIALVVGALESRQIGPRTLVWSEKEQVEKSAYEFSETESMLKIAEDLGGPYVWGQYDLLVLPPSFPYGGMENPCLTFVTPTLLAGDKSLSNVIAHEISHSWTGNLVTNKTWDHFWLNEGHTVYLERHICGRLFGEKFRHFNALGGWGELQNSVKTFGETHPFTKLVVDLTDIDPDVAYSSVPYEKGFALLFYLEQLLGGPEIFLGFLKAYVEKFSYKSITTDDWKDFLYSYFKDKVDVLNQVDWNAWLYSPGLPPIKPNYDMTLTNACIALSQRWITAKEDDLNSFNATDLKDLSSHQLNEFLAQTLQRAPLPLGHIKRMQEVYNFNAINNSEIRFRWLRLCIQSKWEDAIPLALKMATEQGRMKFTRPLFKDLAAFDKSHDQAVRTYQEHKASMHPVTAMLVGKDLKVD

[2] = target: T1, Leukotriene A-4 hydrolase; assay: Competitive inhibition of human C-terminal his6-tagged/N-terminal T7 gene leader sequence-tagged LTA4H using varying levels of L-arginine-7-amino-4-Methylcoumarine as substrate preincubated for 30 mins followed by substrate addition measured for 30 mins by fluorescence assay
[3] = target: T1, Leukotriene A-4 hydrolase; assay: Binding affinity to human C-terminal his6-tagged/N-terminal T7 gene leader sequence-tagged LTA4H at 15 degC by ITC method
[4] = target: T1, Leukotriene A-4 hydrolase; assay: Binding affinity to human C-terminal his6-tagged/N-terminal T7 gene leader sequence-tagged LTA4H at 25 degC by ITC method
[5] = target: T1, Leukotriene A-4 hydrolase; assay: Binding affinity to human C-terminal his6-tagged/N-terminal T7 gene leader sequence-tagged LTA4H at 35 degC by ITC method
[6] = target: T2, Leukotriene A-4 hydrolase (Homo sapiens) (UniProt P09960)
T2 sequence (whole entry): T1 sequence (P09960 whole entry)

[7] = target: T2, Leukotriene A-4 hydrolase (Homo sapiens); remark: listed apart in the source
Description: Binding affinity to human C-terminal His6-tagged/N-terminal T7 gene leader sequence-tagged LTA4H assessed as change in melting temperature at 1 mM by circular dichroism spectroscopic analysis

[8] = target: T2, Leukotriene A-4 hydrolase (Homo sapiens); assay: Binding affinity to human C-terminal His6-tagged/N-terminal T7 gene leader sequence-tagged LTA4H assessed as change in melting temperature at 0.5 mM by circular dichroism spectroscopic analysis
[9] = target: T2, Leukotriene A-4 hydrolase (Homo sapiens); details: 40 uM

Row | SMILES | pIC50 [1] | pKi [2] | pKd [3] | pKd [4] | pKd [5] | ΔTm [6] [°C] | ΔTm [7] [°C] | ΔTm [8] [°C] | ΔTm [9] [°C]
1 | C[C@H](CS)C(=O)N1CCC[C@H]1C(=O)O [CAPTOPRIL] | 5.44 | 5.43 | 5.20 | 5.20 | 5.07 | 1.5 | 0.7 |  | 
2 | CN(C)CCOc1ccc(Oc2ccccc2)cc1 | 7.22 | 6.80 | 7.22 | 6.57 | 6.57 | 5 |  | 7.8 | 
3 | CC(C)C[C@H](NC(=O)[C@@H](O)[C@H](N)Cc1ccccc1)C(=O)O |  |  |  |  |  | 5.1 | 5.2 |  | 
4 | CN(CCCOc1ccc(Cc2ccccc2)cc1)CCC(=O)O |  |  |  |  |  | 5.4 |  | 8.9 | 
5 | Nc1nc(-c2ccc(Cc3ccccc3)cc2)cs1 | 6.40 | 6.44 | 6.89 | 6.51 | 6.66 | 5.3 |  |  | 5.3

From ChEMBL document CHEMBL3860073, “Thermodynamic properties of leukotriene A4 hydrolase inhibitors” (Bioorg Med Chem, 2016)
